Consider 26 molecules from ChEMBL document CHEMBL4387741, “Optimization of novel reversible Bruton's tyrosine kinase inhibitors identified using Tethering-fragment-based screens” (Bioorg Med Chem, 2019).

Structures are written as SMILES. pIC50: −log10 of the molar value.

The target of this assay is Tyrosine-protein kinase BTK (Homo sapiens, UniProt Q06187). Briefly: biochemical.
Chain of Tyrosine-protein kinase BTK (Q06187 whole entry): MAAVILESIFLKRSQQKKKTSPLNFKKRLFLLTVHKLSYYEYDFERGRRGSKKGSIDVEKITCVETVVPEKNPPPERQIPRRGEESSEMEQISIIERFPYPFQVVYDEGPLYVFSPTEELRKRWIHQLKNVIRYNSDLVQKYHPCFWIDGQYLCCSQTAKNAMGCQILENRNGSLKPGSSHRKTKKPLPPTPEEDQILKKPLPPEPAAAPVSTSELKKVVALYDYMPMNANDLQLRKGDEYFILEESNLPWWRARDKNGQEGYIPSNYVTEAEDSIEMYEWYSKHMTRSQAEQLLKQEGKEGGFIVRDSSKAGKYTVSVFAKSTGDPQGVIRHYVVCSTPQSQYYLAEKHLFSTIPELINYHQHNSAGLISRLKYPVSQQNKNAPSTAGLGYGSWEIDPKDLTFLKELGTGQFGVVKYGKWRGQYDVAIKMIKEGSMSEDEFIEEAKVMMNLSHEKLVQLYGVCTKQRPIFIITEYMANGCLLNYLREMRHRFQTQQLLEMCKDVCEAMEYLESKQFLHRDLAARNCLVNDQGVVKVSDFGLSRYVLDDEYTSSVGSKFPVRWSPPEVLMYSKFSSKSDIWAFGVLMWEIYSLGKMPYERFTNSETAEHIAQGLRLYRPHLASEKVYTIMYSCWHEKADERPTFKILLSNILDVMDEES

Description: Reversible inhibition of recombinant full-length N-terminal 6-His-tagged human BTK expressed in baculovirus infected Sf21 insect cells using fluorescent-labeled polyGAT peptide as substrate incubated for 30 mins by TR-FRET assay

A word on the pIC50: it is the negative decadic logarithm of the IC50, by convention in mol/L. On to `O=C(Nc1cccc(C2CCCN(c3ncnc4[nH]ccc34)C2)c1)Nc1ccccc1F` (stereo unspecified), for which the pIC50 was 6.30. Under `O=c1c(Nc2ccccc2)c(Nc2cccc(C3CCCN(c4ncnc5[nH]ccc45)C3)c2)c1=O` (stereo unspecified) stands 4.36; under `O=S(=O)(Nc1cccc(C2CCCN(c3ncnc4[nH]ccc34)C2)c1)c1ccccc1` (stereo unspecified), 4.72; under `c1cc(Nc2nc3ccccc3[nH]2)cc(C2CCCN(c3ncnc4[nH]ccc34)C2)c1` (stereo unspecified), 5.39. On to `O=C(NCCC#CCCNc1ncnc2[nH]ccc12)Nc1ccccc1`, for which the pIC50 is 4.72. Under `O=C(Nc1cccnc1)Nc1cccc(C2CCCN(c3ncnc4[nH]ccc34)C2)c1` (stereo unspecified) stands 5.49; under `O=C(Nc1ccc(Cl)cc1)Nc1cccc(C2CCCN(c3ncnc4[nH]ccc34)C2)c1` (stereo unspecified), 5.64; under `O=C(Nc1cccc(C2CCCN(c3ncnc4[nH]ccc34)C2)c1)Nc1ccccc1C(F)(F)F` (stereo unspecified), 6.34. Under `O=C(NCCCCCCNc1ncnc2[nH]ccc12)Nc1ccccc1` stands 4.96; under `O=C(Nc1cccc(C2CCCN(c3ncnc4[nH]ccc34)C2)c1)Nc1ccccc1C1CCCC1` (racemic), 7.00. Under `O=C(Nc1ccc(F)cc1)Nc1cccc(C2CCCN(c3ncnc4[nH]ccc34)C2)c1` (stereo unspecified) stands 5.89. Consider `O=C(Nc1ccccc1)Nc1cccc(CCNc2ncnc3[nH]ccc23)c1`, for which the pIC50 is 5.08. Against the preceding molecule, the pIC50 is 0.81 log units lower.

In turn, `O=C(Nc1cccc(C2CCCN(c3ncnc4[nH]ccc34)C2)c1)c1ccccc1` (stereo unspecified) showed a pIC50 of 5.31. Then `CC(C)(C#N)c1ccccc1NC(=O)Nc1cccc(C2CCCN(c3ncnc4[nH]ccc34)C2)c1` (racemic), with under 5.00. Under `O=C(Nc1ccncc1)Nc1cccc(C2CCCN(c3ncnc4[nH]ccc34)C2)c1` (stereo unspecified) stands under 5.00; under `O=C(Nc1cccc(F)c1)Nc1cccc(C2CCCN(c3ncnc4[nH]ccc34)C2)c1` (stereo unspecified), 5.92.

As to `O=C(Nc1cccc(C2CCCN(c3ncnc4[nH]ccc34)C2)c1)Nc1ccccn1` (stereo unspecified), the pIC50 was 5.57. The molecule `O=C(Nc1cccc(C2CCCN(c3ncnc4[nH]ccc34)C2)c1)Nc1ccccc1C1CC1` (racemic) showed a pIC50 of 6.70. Then `O=C(NCCCCCNc1ncnc2[nH]ccc12)Nc1ccccc1`, with 4.80; and `O=C(Cc1ccccc1)Nc1cccc(C2CCCN(c3ncnc4[nH]ccc34)C2)c1` (stereo unspecified), with 4.35. Under `O=C(Nc1cccc(Cl)c1)Nc1cccc(C2CCCN(c3ncnc4[nH]ccc34)C2)c1` (stereo unspecified) stands 5.74; under `N#C/N=C(\Nc1ccccc1)Nc1cccc(C2CCCN(c3ncnc4[nH]ccc34)C2)c1` (stereo unspecified), 4.17; under `O=C(NCCc1cccc(Nc2ncnc3[nH]ccc23)c1)Nc1ccccc1`, 4.92.

`O=C(Nc1cccc(C2CCCN(c3ncnc4[nH]ccc34)C2)c1)Nc1ccccc1N1CCCCC1` (racemic) had a pIC50 of 6.26. Then `O=C(NCCCC1CCCN(c2ncnc3[nH]ccc23)C1)Nc1ccccc1` (racemic), with 5.70; and `CC(C)(C)c1ccccc1NC(=O)Nc1cccc(C2CCCN(c3ncnc4[nH]ccc34)C2)c1` (racemic), with 6.85.
